From US20170000908A1, “A MICELLAR PARTICLE” (AGENCY FOR SCIENCE, TECHNOLOGY AND RESEARCH, priority 2013, published 2017)

Experiments:
[1] = Quantum yield measured against fluorescence standard solutions; format: physicochemical; details: dye in THF
Procedure: Quantum yield was measured with respect to the fluorescence standard solution, namely fluorescein (Ethanol; QY=0.79), and rhodamine B (Ethanol; QY=0.49). Fluorescein was used as a reference for Coumarin545T@SiO2, whereas rhodamine B was used for DCJTB@SiO2. The procedures involved diluting the fluorescent silica nanocapsules and the fluorescence standard solution with their respective solvent to have the same absorbance at excitation wavelength (460 nm for fluorescein; 490 nm for rhodamine B). Quantum yields for fluorescent silica nanocapsules were measured by dividing, the integrated emission area of their fluorescent spectrum against that of fluorecein or rhodamine B in Ethanol. […] In addition, the lifetime of Coumarin545T@SiO2 was determined to be 3.38 ns, while the lifetime of coumarin545T in THF was determined to be 2.86 ns. Similarly, the lifetime of DCJTB@SiO2 was determined to be 3.40 ns, while the lifetime of DCJTB in THF was determined to be 2.50 ns.

[2] = UV-Vis and photoluminescent spectra (emission peak, fwhm); format: physicochemical; details: dye in THF
Description: The UV-Vis and photoluminescent spectra of Coumarin545T@SiO2 are shown in FIG. 2 while those of DCJTB@SiO2 are shown in FIG. 3.
(§1) FIG. 4 is a graph showing the time-resolved photoluminescence decay of Coumarin545T dissolved in THF and that when encapsulated inside the core of the nanocapsules. FIG. 5 is a graph showing the time-resolved photoluminescence decay of DCJTB dissolved in THF and that when encapsulated inside the core of the nanocapsules. […] Based on these figures, when compared to the photoluminescence behavior of the dye solutions (Coumarin545T or DCJTB) in their respective solvents, there is a significant red-shift in the emission peak for both of the silica nanocapsules, which should be ascribed to the π-π stacking of the dye molecules by encapsulation. The emission spectra of the nanocapsules are also broader than the dye solutions in their respective solvents. The silica coating could lead to improvement in the photostability of the dye molecules by limiting their contact with the outside environment, especially soluble oxygen molecules.

[3] = Photoluminescence lifetime by Time Correlated Single Photon Counting (TCSPC); format: physicochemical; details: dye in THF; excited at 405 nm
Procedure: The photoluminescence lifetimes of the Coumarin545T@SiO2 and DCJTB@SiO2 samples were measured using a Time Correlated Single Photon Counting (TCSPC) module (PicoQuant PicoHarp 300 of PicoQuant of Berlin, Germany). The Coumarin545T@SiO2 and DCJTB@SiO2 samples were excited by using 405 nm line of a picosecond pulsed laser diode (PicoQuant PDL 800-B). The photoluminescence was dispersed through a monochromator (Acton SpectroPro 2300i) and detected with a micro channel plate photomultiplier tube (MCP-PMT) detector (Hamamatsu R3809U-50).
as §1, with “The silica coating could lead to improvement in the photostability of the dye molecules by limiting their contact with the outside environment, especially soluble oxygen molecules.” left out

[4] = Ethanol; cited from earlier work

CC1(C)CCN2CCC(C)(C)c3c2c1cc1cc(-c2nc4ccccc4s2)c(=O)oc31 [Coumarin 545T]
Quantum Yield (QY) [1]: 0.99
fwhm [2]: 35 nm
λem [2]: 504 nm
Fluorescence Lifetime (τ) [3]: 2.86 ns

CC(C)(C)C1=CC(=C(C#N)C#N)C=C(/C=C/c2cc3c4c(c2)C(C)(C)CCN4CCC3(C)C)O1 [DCJTB]
Quantum Yield (QY) [1]: 0.99
fwhm [2]: 73 nm
λem [2]: 605 nm
Fluorescence Lifetime (τ) [3]: 2.50 ns

CCN(CC)c1ccc2c(-c3ccccc3C(=O)O)c3ccc(=[N+](CC)CC)cc-3oc2c1.[Cl-] [rhodamine B]
Quantum yield (QY) of fluorescence standard solution [4]: 0.49
